Like-named read-outs stand apart in the source and are kept apart here.
Tests used:
[1] = test system: 3-Chlorobenzoate Dechlorination Activity; test: Induction of 3-chlorobenzoate dechlorination activity by growth with 3-chlorobenzoate, analogues, or chloro- and iodobenzoates (Tables 4, 5); format: cell-based, Desulfomonile tiedjei
Method: Table 4. Cultures were grown in the presence of 3-chlorobenzoate or a 3-chlorobenzoate analogue substituted at the 1- or 3- position with the indicated functional groups. After several generations the culture were concentrated, washed and resuspended in anaerobic buffered salts containing 1 mM 3-chlorobenzoate and 10 mM pyruvate (as electron donor). […] After two hours samples were taken for benzoate analysis by HPLC. Values presented are the average of duplicate or triplicate cultures ± sample standard deviation.
Table 5. Chloro- and iodobenzoates were tested as inducers of 3-chlorobenzoate dehalogenation activity as described in the legend to Table 4. All compounds were initially at 500 μM; the 3-halo compounds were amended during growth as they were dehalogenated. Values presented are the average of duplicate or triplicate cultures± sample standard deviation.

[2] = test system: Dechlorination of 3-Chlorobenzoate; test: Dechlorination of 3-chlorobenzoate in the presence of various analogues by induced cells (Table 6); format: cell-based; conditions: Desulfomonile tiedjei, read-out: dechlorination of 3-chlorobenzoate in the presence of analogue, % of Control
Method: […]. 3-fluorobenzoate induced cultures were washed and resuspended essentially as described in the legend to […] with 100 μM 3-chlorobenzoate and the indicated analogues at 500 μM. Dechlorination rates were normalized to the rate in assays with no analogue to obtain the values presented.

dechlorination of 3CB = conditions: cited from earlier work
[3] = test system: Desulfomonile tiedjei cells; test: PCE and TCE dechlorination by resuspended cells induced with 3-fluorobenzoate versus non-induced cells (Table 1, FIG. 1); format: cell-based; conditions: for Mole % recovered, TCE / Mole % recovered, cis-DCE / Total Cl Removed: 2 μg/ml substrate, 37° C., 2 hr; for Mole % recovered, TCE / Mole % recovered, cis-DCE: average of duplicate vials; for Total Cl Removed: calculated from input concentration and Mole % recovered
Method: (§1) Cultures were grown using strict anaerobic technique in a synthetic minimal medium amended with vitamins (DeWeerd, et al, Arch. of Microbiol. 154, 23-30 (1990)), pyruvate at 20 mM, and reduced with 1 mM cysteine and 0.1 mM Na2 S2 O4. The concentration of nicotinamide and 1,4-naphthoquinone were 500 μgl^-1 and 200 μgl^-1, respectively. Thiamine, hemin and lipoic acid were used at 50 μg/liter. To induce 3-chlorobenzoate dechlorination activity, 3-fluorobenzoate was added to 0.1 mM. The complete medium was inoculated with a 1% transfer from homologous medium (without fluorobenzoate). Cultures were grown at 37° C. in the dark for about 14 days for fresh cells or 28 days for starved stationary phase cells.
(§2) Cultures were harvested by centrifugation and resuspended in 20 to 40% of the initial volume in a cold anaerobic assay buffer normally consisting of 50 mM NaCl, 10 mM sodium pyruvate, 10 mM HEPES (N-2[hydroxyethylP]piperazine-N'-[2-ethanesulfonic acid], hemisodium salt Sigma);, 0.00001% resazurin and reduced with 1 mM cysteine-HCl and 1 mM titanium (III) citrate. Resuspended cells were used to completely fill N2 sparged 10 ml serum bottles after which chlorinated ethylenes were added from a 0.5 or 1 mg/ml stock in methanol for PCE and TCE respectively. The vials were immediately sealed with Teflon lined rubber septa and aluminum crimp seals, leaving no headspace. The assays were commenced by transferring the serum bottles to a 37° C. water bath. The assays were terminated at the indicated times by transferring the serum bottles to an ice water bath, where they were stored until analyzed. Protein concentrations were determined by a modification of the Lowry method (Hanson, R. S. and J. A. Phillips, In P. Gerhardt (ed.) Manual of methods for general microbiology. American Society for Microbiology, Washington, D. C. p. 328-364 (1981)).
(§3) Chlorinated ethylenes were monitored with a Tekmar purge and trap unit (model 4000) connected to a Hewlett-Packard GC (Sunnyville, Calif.) equipped with an HP-5 cappillary column (30 m×0.53 mm×2.6 μm film thickness) and flame ionization detector. Samples (5 ml) were purged onto Tenax TA (Supelco, Bellefonte, Pa.) adsorbent with helium (30 ml/min for 16 min.), desorbed (180° C. for 4 min.), and separated using helium as a carrier at 6 ml/min. The temperature program was 30° C. for 8 min, increasing to 200° C. at 4° C./min and followed by an isothermal period of 5 min. The injection and detector temperatures were 220° C. and 300° C., respectively. PCE and its dechlorinated products were identified by comparison with authentic standards.
To further examine the transformation of both PCE and TCE and to determine if dechlorination of TCE also requires induction, a similar experiment was conducted to measure the initial transformation rates of PCE and TCE (Table 1.). […] The extent of transformation of PCE to TCE ([…] in 2H) was considerably faster than the rate of transformation of TCE to DCE ([…] in 2h), as expected from the redox potentials of these reactions (Vogel, T. M., et al., Environ. Sci. Technol. 21:722-736 (1987)) and results from mixed culture systems (Bouwer, E. J., and P. L. McCarty, Appl. Environ. Microbiol. 45:1286-1294 (1983)). The rate of transformation of PCE and TCE were much greater for the induced cultures than for the non-induced cultures.
^a suspensions were amended with PCE or TCE to a final concentration
of 2 μg/ml and incubated at 37° C. for 2 hr. Suspensions of
induced and uninduced cells contained 149 and 153 μg protein per ml
^b Data are presented as the average of duplicate vials with the
sample standard deviation in parenthesis.
^c Calculated from the input concentration of chlorinated ethylenes
and the Mole % of recovered material.

[4] = test system: Desulfomonile tiedjei cells; test: Effect of different medium reductants and sterilant on PCE dechlorination by induced cells (Table 2); format: cell-based; conditions: formaldehyde, final concentration 0.2%
Method: as §1, with “The” for “Cultures were grown using strict anaerobic technique in a synthetic minimal medium amended with vitamins (DeWeerd, et al, Arch. of Microbiol. 154, 23-30 (1990)), pyruvate at 20 mM, and reduced with 1 mM cysteine and 0.1 mM Na2 S2 O4. The”
as §2, with “analyzed.” for “analyzed. Protein concentrations were determined by a modification of the Lowry method (Hanson, R. S. and J. A. Phillips, In P. Gerhardt (ed.) Manual of methods for general microbiology. American Society for Microbiology, Washington, D. C. p. 328-364 (1981)).”
as §3
Data are the average of duplicate vials and […]

[5] = Table 5, inducers initially 500 μM, 3-halo compounds amended during growth
[6] = Table 4, inducers at 500 μM except 3-formylbenzoate 100 μM and 3-chlorobenzoate (amended at intervals), assay 1 mM 3-chlorobenzoate, two hours
[7] = 100 μM 3-chlorobenzoate, analogue 500 μM, normalized to rate with no analogue
[8] = growing cells and resuspended cells

SMILES: O=C(O)c1ccccc1Cl [2-chloro-]
- Induction Activity (3-chlorobenzoate dechlorination activity) [1, 5]: 0 ± 0 nMol/hr/mg protein

SMILES: O=C(O)c1ccccc1I [2-iodobenzoate]
- Induction Activity (3-chlorobenzoate dechlorination activity) [1, 5]: 13 ± 9 nMol/hr/mg protein

SMILES: O=C(O)c1cccc(F)c1 [3-fluorobenzoate]
- Induction Activity (3-chlorobenzoate dechlorination activity) [1, 6]: 570 ± 37 nMol/hr/mg protein
- activity at 500 µM [2, 7]: 114%

SMILES: O=Cc1cccc(C(=O)O)c1 [3-formylbenzoate]
- Induction Activity (3-chlorobenzoate dechlorination activity) [1, 6]: 8 ± 1 nMol/hr/mg protein

SMILES: O=C(O)c1cccc(I)c1 [3-iodo-, m-iodobenzoate]
- Induction Activity (3-chlorobenzoate dechlorination activity) [1, 5]: 582 ± 59 nMol/hr/mg protein

SMILES: Cc1cccc(C(=O)O)c1 [3-methyl-benzoate]
- Induction Activity (3-chlorobenzoate dechlorination activity) [1, 6]: 409 ± 6 nMol/hr/mg protein
- activity at 500 µM [2, 7]: 119%

SMILES: O=C(O)c1ccc(I)cc1 [4-iodobenzoate]
- Induction Activity (3-chlorobenzoate dechlorination activity) [1, 5]: 7 ± 10 nMol/hr/mg protein

SMILES: OCc1cccc(Cl)c1 [--CH2 OH --Cl, 3-chlorobenzyl alcohol]
- Induction Activity (3-chlorobenzoate dechlorination activity) [1, 6]: 86 ± 5 nMol/hr/mg protein
- activity at 500 µM [2, 7]: 108%

SMILES: O=C(O)c1cccc(C(F)(F)F)c1 [--COOH --CF3, m-trifluoromethyl benzoate]
- Induction Activity (3-chlorobenzoate dechlorination activity) [1, 6]: 383 ± 6 nMol/hr/mg protein
- activity at 500 µM [2, 7]: 94%

SMILES: N#Cc1cccc(C(=O)O)c1 [--COOH --CN]
- Induction Activity (3-chlorobenzoate dechlorination activity) [1, 6]: 7 ± 1 nMol/hr/mg protein
- activity at 500 µM [2]: 76%

SMILES: O=C(O)c1ccccc1 [--COOH --H, benzoate]
- activity at 500 µM [2]: 106%

SMILES: Nc1cccc(C(=O)O)c1 [--COOH --NH2]
- Induction Activity (3-chlorobenzoate dechlorination activity) [1, 6]: 4 ± 1 nMol/hr/mg protein
- activity at 500 µM [2, 7]: 78%

SMILES: O=C(O)c1cccc(O)c1 [--COOH --OH]
- Induction Activity (3-chlorobenzoate dechlorination activity) [1, 6]: 3 ± 4 nMol/hr/mg protein
- activity at 500 µM [2, 7]: 91%

SMILES: O=S(=O)(O)O [Sulfate]
- effect on dechlorination of 3CB (dechlorination of 3CB; cells growing on a different medium or resuspended cells): not by cells growing on a different medium or by resuspended cells
- effect on dechlorination of 3CB (dechlorination of 3CB; cells growing on one medium): inhibited dechlorination of 3CB

SMILES: ClC=C(Cl)Cl [TCE, trichloroethylene]
- product formation from PCE or TCE ([3]; Only cultures pre-induced with 3-fluorobenzoate): measurable product formation
- Mole % recovered, TCE ([3]; induced (+)): 89.2 Mole %
- Mole % recovered, cis-DCE ([3]; induced (+)): 10.8 Mole %
- Total Cl Removed ([3]; induced (+)): 11.0 μmol/g prot. in 2 h
- Mole % recovered, TCE ([3]; non-induced (-)): 100.0 Mole %
- Mole % recovered, cis-DCE ([3]; non-induced (-)): 0.0 Mole %
- Total Cl Removed ([3]; non-induced (-)): 0.0 μmol/g prot. in 2 h
- rate of transformation of TCE to DCE ([3]; pre-induced with 3-fluorobenzoate): 11 mol g protein ^-1 in 2h

SMILES: O=S(O)(O)=S [Thiosulfate]
- effect on dechlorination of 3CB (dechlorination of 3CB; [8]): inhibit dechlorination of 3CB

SMILES: C=O [formaldehyde]
- effect on PCE dechlorination [4]: almost totally blocked dechlorination

SMILES: O=S(O)O [sulfite]
- effect on dechlorination of 3CB (dechlorination of 3CB; [8]): inhibit dechlorination of 3CB
